Data reported in patent US8859580B2 (Boehringer Ingelheim International GmbH, priority 2007, dated 2014).

Molecular target: T1, 11β-HSD1 (Homo sapiens, UniProt P28845)
T1 construct: detecting cortisol generated from cortisterone by human liver microsomes; from tissue; host or cells: human liver microsomes
Test: In vitro inhibition of 11β-HSD1, HTRF detection of cortisol generated from cortisone by human liver microsomes
Type: biochemical
Details: 11β-HSD IC50 (nM), 1 hour at 37° C., pH 6.0, NADPH 200 μM, cortisone 80 nM, inhibition relative to carbenoxolone signal
Protocol: Cortisol generated in the reaction is then detected with a competitive immunoassay, involving two HTRF conjugates: cortisol linked to XL665 and anti-cortisol antibody labeled with Europium cryptate. The incubation period for detection reaction was typically 2 hours. […] The ratio of the two emission signals is then calculated (Em665*10000/Em615). […] Each assay also contained a calibration curve with cortisol to transform the fluorescent data into cortisol concentrations. Percent inhibition of each compound was determined relative to the carbenoxolone signal and IC50 curves were generated.

T1 sequence (P28845 whole entry): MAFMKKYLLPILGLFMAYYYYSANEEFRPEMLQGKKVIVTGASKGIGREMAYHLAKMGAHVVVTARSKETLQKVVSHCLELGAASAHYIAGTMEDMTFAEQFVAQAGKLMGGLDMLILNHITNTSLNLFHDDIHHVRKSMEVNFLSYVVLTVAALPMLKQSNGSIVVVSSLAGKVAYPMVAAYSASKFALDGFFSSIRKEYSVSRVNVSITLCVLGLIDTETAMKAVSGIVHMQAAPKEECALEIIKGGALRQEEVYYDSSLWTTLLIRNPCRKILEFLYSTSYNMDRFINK

Structure (SMILES)	IC50
COC(=O)C12CCN(C(=O)c3ccc4ncsc4c3)C(Cc3ccc(O)cc31)C2 (stereo not drawn) [Example 94, 3-(Benzothiazole-6-carbonyl)-8-hydroxy-2,3,4,5-tetrahydro-1H-2,6-methano-benzo[d]azocine-6-carboxylic acid methyl ester]	6720 nM
CC12CCN(C(=O)c3ccc4nc[nH]c4c3)C(Cc3ccc(Cl)cc31)C2(C)C (stereo not drawn) [Example 75, (3H-Benzoimidazol-5-yl)-(8-chloro-6,11,11-trimethyl-1,2,5,6-tetrahydro-4H-2,6-methano-benzo[d]azocin-3-yl)-methanone]	395 nM
COc1cc2c(cc1C)[C@]1(C)CCN(C(=O)c3ccc4nc[nH]c4c3)[C@H](C2)C1(C)C (stereo in doubt) [Example 63, (3H-Benzoimidazol-5-yl)-[(2R,6S)-9-methoxy-6,8,11,11-tetramethyl-1,2,5,6-tetrahydro-4H-2,6-methano-benzo[d]azocin-3-yl]-methanone]	216 nM
CCC12CCN(C(=O)c3ccc4nc[nH]c4c3)C(Cc3ccc(O)cc31)C2 (stereo not drawn) [Example 90, (3H-Benzoimidazol-5-yl)-(6-ethyl-8-hydroxy-1,2,5,6-tetrahydro-4H-2,6-methano-benzo[d]azocin-3-yl)-methanone]	468 nM
COc1ccc2c(c1)[C@]1(C)CCN(C(=O)c3occc3C)[C@H](C2)[C@@H]1C [Example 111, [(2R,6R,11R)-8-Methoxy-6,11-dimethyl-1,2,5,6-tetrahydro-4H-2,6-methano-benzo[d]azocin-3-yl]-(3-methyl-furan-2-yl)-methanone]	1600 nM
Cn1nc(C(=O)N2CC[C@@]3(C)c4cccc(O)c4C[C@@H]2C3(C)C)c2ccccc21 [Example 194, [(2R,6S)-10-Hydroxy-6,11,11-trimethyl-1,2,5,6-tetrahydro-4H-2,6-methano-benzo[d]azocin-3-yl]-(1-methyl-1H-indazol-3-yl)-methanone]	642 nM
CCN(CC)C(=O)c1ccc(C(=O)N2CC[C@@]3(C)c4cccc(O)c4C[C@@H]2C3(C)C)cc1 [Example 168, N,N-Diethyl-4-[(2R,6S)-10-hydroxy-6,11,11-trimethyl-1,2,5,6-tetrahydro-4H-2,6-methano-benzo[d]azocine-3-carbonyl]-benzamide]	561 nM
CN(C)C(=O)c1ccc2c(c1)CC1N(C(=O)c3ccc4nc[nH]c4c3)CCC2(C)C1(C)C (stereo not drawn) [Example 161, 3-(3H-Benzoimidazole-5-carbonyl)-6,11,11-trimethyl-1,2,3,4,5,6-hexahydro-2,6-methano-benzo[d]azocine-9-carboxylic acid dimethylamide]	1750 nM
COC(=O)c1cc(F)cc(C(=O)N2CC[C@@]3(C)c4cccc(O)c4C[C@@H]2C3(C)C)c1 [Example 43, 3-Fluoro-5-[(2R,6S)-10-hydroxy-6,11,11-trimethyl-1,2,5,6-tetrahydro-4H-2,6-methano-benzo[d]azocine-3-carbonyl]-benzoic acid methyl ester]	1760 nM
C[C@@H]1[C@H]2Cc3ccc(CN)cc3[C@]1(C)CCN2C(=O)c1ccc2nc[nH]c2c1 [Example 172, [(2R,6R,11S)-8-Aminomethyl-6,11-dimethyl-1,2,5,6-tetrahydro-4H-2,6-methano-benzo[d]azocin-3-yl]-(3H-benzoimidazol-5-yl)-methanone]	1720 nM
Cc1cc2c(cc1O)C[C@H]1N(C(=O)c3ccc4nc[nH]c4c3)CC[C@]2(C)C1(C)C (stereo in doubt) [Example 67, (3H-Benzoimidazol-5-yl)-[(2R,6S)-9-hydroxy-6,8,11,11-tetramethyl-1,2,5,6-tetrahydro-4H-2,6-methano-benzo[d]azocin-a 3-yl]-methanone]	32 nM
CC1(C)[C@H]2Cc3ccccc3[C@]1(C)CCN2C(=O)c1ccc(S(N)(=O)=O)cc1 [Example 342, 4-[(2R,6S)-6,11,11-Trimethyl-1,2,5,6-tetrahydro-4H-2,6-methano-benzo[d]azocine-3-carbonyl]-benzenesulfonamide]	373 nM
CC1(C)[C@H]2Cc3c(O)cccc3[C@]1(C)CCN2C(=O)c1coc2ccccc12 [Example 198, Benzofuran-3-yl-[(2R,6S)-10-hydroxy-6,11,11-trimethyl-1,2,5,6-tetrahydro-4H-2,6-methano-benzo[d]azocin-3-yl]-methanone]	435 nM
CC1(C)C2CCN(C(=O)c3ccc4nc[nH]c4c3)C1Cc1c(O)cccc12 (stereo not drawn) [Example 183, (3H-Benzoimidazol-5-yl)-(10-hydroxy-11,11-dimethyl-1,2,5,6-tetrahydro-4H-2,6-methano-benzo[d]azocin-3-yl)-methanone]	155 nM
CC1(C)[C@H]2Cc3cc4nc(C5CC5)[nH]c4cc3[C@]1(C)CCN2C(=O)c1ccc2nc[nH]c2c1 [Example 271, (3H-Benzoimidazol-5-yl)-[(6R,10S)-2-cyclopropyl-5,6,7,8,9,10-hexahydro-10,12,12-trimethyl-6,10-methano-imidazo[5,4-i][3]benzazocin-7-yl]-methanone]	50 nM
C[C@@H]1[C@H]2Cc3ccc(C(=O)O)cc3[C@]1(C)CCN2C(=O)c1ccc2nc[nH]c2c1 [Example 151, (2R,6R,11S)-3-(3H-Benzoimidazole-5-carbonyl)-6,11-dimethyl-1,2,3,4,5,6-hexahydro-2,6-methano-benzo[d]azocine-8-carboxylic acid]	426 nM
COC(=O)C12CCN(C(=O)c3ccc4nc[nH]c4c3)C(Cc3ccc(O)cc31)C2 (stereo not drawn) [Example 212, 3-(3H-Benzoimidazole-5-carbonyl)-8-hydroxy-2,3,4,5-tetrahydro-1H-2,6-methano-benzo[d]azocine-6-carboxylic acid methyl ester]	1940 nM
CC1(C)[C@H]2Cc3ccccc3[C@]1(C)CCN2C(=O)c1ccc(O)nc1 [Example 303, (6-Hydroxy-pyridin-3-yl)-[(2R,6S)-6,11,11-trimethyl-1,2,5,6-tetrahydro-4H-2,6-methano-benzo[d]azocin-3-yl)-methanone]	717 nM
CC1(C)[C@H]2Cc3ccccc3[C@]1(C)CCN2C(=O)c1c[nH]c2ccccc12 [Example 259, (1H-Indol-3-yl)-[(2R,6S)-6,11,11-trimethyl-1,2,5,6-tetrahydro-4H-2,6-methano-benzo[d]azocin-3-yl]-methanone]	115 nM
CC1(C)[C@H]2Cc3c(O)cccc3[C@]1(C)CCN2C(=O)c1cc2ccccc2[nH]1 [Example 116, [(2R,6S)-10-Hydroxy-6,11,11-trimethyl-1,2,5,6-tetrahydro-4H-2,6-methano-benzo[d]azocin-3-yl]-(1H-indol-2-yl)-methanone]	3850 nM
CC12CCN(C(=O)c3ccc4ncsc4c3)C(Cc3ccccc31)C2 (stereo not drawn) [Example 174, Benzothiazol-6-yl-(6-methyl-1,2,5,6-tetrahydro-4H-2,6-methano-benzo[d]azocin-3-yl)-methanone]	406 nM
C[C@@H]1[C@H]2Cc3ccc(-c4ncon4)cc3[C@]1(C)CCN2C(=O)c1ccc2nc[nH]c2c1 [Example 232, (3H-Benzoimidazol-5-yl)-[(2R,6R,11S)-6,11-dimethyl-8-[1,2,4]oxadiazol-3-yl-1,2,5,6-tetrahydro-4H-2,6-methano-benzo[d]azocin-3-yl]-methanone]	132 nM
CC1(C)[C@H]2Cc3c(O)cccc3[C@]1(C)CCN2C(=O)c1n[nH]c2ccccc12 [Example 192, [(2R,6S)-10-Hydroxy-6,11,11-trimethyl-1,2,5,6-tetrahydro-4H-2,6-methano-benzo[d]azocin-3-yl]-(1H-indazol-3-yl)-methanone]	434 nM
CC1(C)[C@H]2Cc3c(O)cccc3[C@]1(C)CCN2C(=O)c1ccc(C(=O)Nc2ccccc2)cc1 [Example 135, 4-[(2R,6S)-10-Hydroxy-6,11,11-trimethyl-1,2,5,6-tetrahydro-4H-2,6-methano-benzo[d]azocine-3-carbonyl]-N-phenyl-benzamide]	3520 nM
Cc1[nH]c2ccccc2c1C(=O)N1CC[C@@]2(C)c3cccc(O)c3C[C@@H]1C2(C)C [Example 197, [(2R,6S)-10-Hydroxy-6,11,11-trimethyl-1,2,5,6-tetrahydro-4H-2,6-methano-benzo[d]azocin-3-yl]-(2-methyl-1H-indol-3-yl)-methanone]	3830 nM
CC1(C)[C@@H]2Cc3ccc(O)cc3[C@@]1(C)CCN2C(=O)c1ccc2nc[nH]c2c1 [Example 79, (3H-Benzoimidazol-5-yl)-[(2S,6R)-8-hydroxy-6,11,11-trimethyl-1,2,5,6-tetrahydro-4H-2,6-methano-benzo[d]azocin-3-yl]-methanone]	1370 nM
C[C@@H]1[C@H]2Cc3ccc(-c4ccncn4)cc3[C@]1(C)CCN2C(=O)c1ccc2nc[nH]c2c1 [Example 264, (3H-Benzoimidazol-5-yl)-[(2R,6R,11S)-6,11-dimethyl-8-pyrimidin-4-yl-1,2,5,6-tetrahydro-4H-2,6-methano-benzo[d]azocin-3-yl]-methanone]	78 nM
Cn1nnc2cc3c(cc21)[C@]1(C)CCN(C(=O)c2ccc4nc[nH]c4c2)[C@H](C3)C1(C)C [Example 257, (3H-Benzoimidazol-5-yl)-[(6R,10S)-5,6,7,8,9,10-hexahydro-1,10,12,12-tetramethyl-6,10-methano-triazolo[5,4-i][3]benzazocin-7-yl]-methanone]	209 nM
CC1(C)[C@H]2Cc3c(F)cccc3[C@]1(C)CCN2C(=O)c1ccc2nc[nH]c2c1 [Example 140, (3H-Benzoimidazol-5-yl)-[(2R,6S)-10-fluoro-6,11,11-trimethyl-1,2,5,6-tetrahydro-4H-2,6-methano-benzo[d]azocin-3-yl]-methanone]	48 nM
C[C@H]1[C@H]2Cc3ccccc3[C@]1(C)CCN2C(=O)c1ccc2nc[nH]c2c1 (racemic) [Example 77, (3H-Benzoimidazol-5-yl)-(6,11-dimethyl-1,2,5,6-tetrahydro-4H-2,6-methano-benzo[d]azocin-3-yl)-methanone]	144 nM
